# According to patent publication US12025612B2, “Brown adipocyte progenitors in human skeletal muscle” (Energesis Pharmaceuticals, Inc., priority 2008, dated 2024):
# What was measured:
# [1] = system: UCP1 mRNA expression in fetal muscle CD34+ cells; test: UCP1 mRNA expression in cultured fetal muscle CD34+ cells, quantitative RT-PCR normalized to cyclophilin A; format: cell-based, human; conditions: rosiglitazone 1 μM
# Method: UCP1 mRNA expression in fetal muscle CD34+ cells could be modulated by drug treatment. Cell-permeating cAMP derivatives strongly stimulated (7 to 8-fold) UCP1 mRNA expression in both primary cultured and expanded cells. The effects of cAMP derivatives, 8-bromo-cAMP, 0.25 mM or (4-chlorophenylthio)-cAMP, 0.25 mM (cAMP) on UCP1 mRNA expression in CD34+ cells in primary culture (PC) or expanded up to passage 3 (P3) are shown in FIG. 3B. All the cells were grown for 4-6 days in EGM2 medium and then placed for 8-12 days in the adipogenic medium described under Materials and Methods. The results are means±s.e.m. of arbitrary values normalized using the corresponding cyclophilin A values. They are expressed in % of their respective untreated (control) values considered as 100% (*p<0.05, n=3-6).
# Rosiglitazone, a PPARγ agonist, had no effect in primary culture cells but strongly stimulated (8-fold) UCP1 mRNA expression in expanded cells. The results are expressed as in FIG. 3B (**p<0.01, n=4-7). […]
# Total cell RNA was prepared using the kit NucleoSpin® RNAII (Clontech, Palo Alto, Calif.) or Extract-all solution (Eurobio, Courtaboeuf, France) and quantified by Biophotometry (Biophotometer, Eppendor). […] Quantitative real-time PCR was performed using ABI rapid thermal cycler system, and a SYBR Green PCR master mix (Applied Biosystems, Foster City, Calif.). […]
# [2] = system: UCP1 mRNA expression in human skeletal muscle; test: UCP1 mRNA expression in vastus lateralis muscle biopsies of obese type 2 diabetic patients before and after rosiglitazone, quantitative RT-PCR; format: in vivo; conditions: for UCP1 mRNA level after treatment (Rosi), normalized to cyclophilin A: after 8 weeks
# Method: Since the PPARγ agonist rosiglitazone was a strong inducer of UCP1 mRNA expression in muscle CD34+ cells in culture, the effect of this compound in vivo in humans was investigated. Vastus lateralis muscle biopsies from 7 obese patients with type 2 diabetes mellitus treated for the management of their metabolic syndrome with rosiglitazone were used. The biopsies were obtained before and after 8 weeks of treatment with rosiglitazone (2×4 mg per day). […] In that study rosiglitazone, concomitantly with the improvement in insulin sensitivity, increased the level of expression of UCP1 in muscle by about 1.6-fold. […] The results are the means±s.e.m. of arbitrary values normalized using the corresponding cyclophilin A values (n=7, *p<0.05 vs. control).
# In FIG. 5, showing UCP1 mRNA levels in skeletal muscle biopsies from a patient group (n=7), “control” corresponds to levels before treatment, and “Rosi” corresponds to levels after treatment (8 weeks) with rosiglitazone. Being a longitudinal study the effect of rosiglitazone on UCP1 levels in each individual (comparison of individual values for the “control”-before and “Rosi”-after conditions) were determined. Starting with 25 ng cDNA (produced by reverse transcription of RNA) the threshold of detection (Ct) during real-time PCR was about 22 for UCP1 and about 18 for cyclophilin.
# Human fetal tissues were obtained anonymously, following spontaneous, voluntary or therapeutic terminations of pregnancy, from Magee Women Hospital, University of Pittsburgh, in compliance with the Institutional Review Board protocol. Developmental age (16 to 24 weeks of gestation) was estimated by measuring foot length. Informed consent to the use of fetal tissues was obtained from the patients in all instances. Adult human discarded abdominal subcutaneous WAT, originating from 45-55 year old patients undergoing plastic surgery performed one year after gastric bypass, was kindly provided by Dr Peter Rubin (Division of Plastic Surgery, University of Pittsburgh). The adult skeletal muscle tissue used for cell sorting was obtained post mortem from 50-78 year-old donors. The adult skeletal muscle used for the first group of RT-PCR studies was obtained from the rectus abdominus during surgery for either lap banding, inguinal hernia or hysterectomy of 10 lean male and female subjects. All subjects agreed to donate muscle samples during their operations and the protocol was approved by the Medical Ethical Review Committee of Deakin University. The average ages were 45±3 years and the average body mass index was 22.2±0.8. The adult skeletal muscle used for the second group of RT-PCR studies was obtained from the vastus lateralis of 7 obese type 2 diabetic male and female patients before and after 8 weeks of treatment with rosiglitazone (2×4 mg per day). The average age was 63±4 years and the average body mass index was […]. The complete clinical profile of the patients has been described in a previous publication. All subjects agreed to donate muscle samples, and the protocol was approved by the Medical Ethical Review Committee of Maastricht University.
# Total cell RNA was prepared using the kit NucleoSpin® RNAII (Clontech, Palo Alto, Calif.) or Extract-all solution (Eurobio, Courtaboeuf, France) and quantified by Biophotometry (Biophotometer, Eppendor). Oligo-dT primed First strand cDNA were synthesized using the Superscript™ II RNase H Reverse Transcription kit (Invitrogen, Carlsbad, Calif.) and oligo-dT primers or the High Capacity cDNA Reverse Transcription kit (Applied Biosystems, Foster City, Calif.) and random primers. Quantitative real-time PCR was performed using ABI rapid thermal cycler system, and a SYBR Green PCR master mix (Applied Biosystems, Foster City, Calif.). Cyclophilin A was used as a control to account for any variations due to the efficiency of the reverse transcription. […]
smiles,measurement,setting,value
CN(CCOc1ccc(CC2SC(=O)NC2=O)cc1)c1ccccn1 (centres unmarked) [rosiglitazone],stimulation of UCP1 mRNA expression,[1]; CD34+ cells expanded up to passage 3 (P3),8 fold
same,effect on UCP1 mRNA expression,[1]; CD34+ cells in primary culture (PC),no effect
same,increase of the level of expression of UCP1 in muscle,"[2]; 7 obese type 2 diabetic patients, 8 weeks, 2×4 mg per day, after vs before treatment, mean",about 1.6 fold
same,UCP1 level at end of treatment in % of before treatment,"[2]; Patient 1, 8 weeks",150%
same,"UCP1 level increase, end of treatment vs. before","[2]; Patient 1, 8 weeks",50%
same,"UCP1 mRNA level after treatment (Rosi), normalized to cyclophilin A",[2]; Patient 1,652 arbitrary units
same,UCP1 level at end of treatment in % of before treatment,"[2]; Patient 2, 8 weeks",100%
same,"UCP1 mRNA level after treatment (Rosi), normalized to cyclophilin A",[2]; Patient 2,453 arbitrary units
same,UCP1 level at end of treatment in % of before treatment,"[2]; Patient 3, 8 weeks",180%
same,"UCP1 level increase, end of treatment vs. before","[2]; Patient 3, 8 weeks",80%
same,"UCP1 mRNA level after treatment (Rosi), normalized to cyclophilin A",[2]; Patient 3,677 arbitrary units
same,UCP1 level at end of treatment in % of before treatment,"[2]; Patient 4, 8 weeks",280%
same,"UCP1 level increase, end of treatment vs. before","[2]; Patient 4, 8 weeks",180%
same,"UCP1 mRNA level after treatment (Rosi), normalized to cyclophilin A",[2]; Patient 4,730 arbitrary units
same,UCP1 level at end of treatment in % of before treatment,"[2]; Patient 5, 8 weeks",108%
same,"UCP1 level increase, end of treatment vs. before","[2]; Patient 5, 8 weeks",8%
same,"UCP1 mRNA level after treatment (Rosi), normalized to cyclophilin A",[2]; Patient 5,600 arbitrary units
same,UCP1 level at end of treatment in % of before treatment,"[2]; Patient 6, 8 weeks",410%
same,"UCP1 level increase, end of treatment vs. before","[2]; Patient 6, 8 weeks",310%
same,"UCP1 mRNA level after treatment (Rosi), normalized to cyclophilin A",[2]; Patient 6,556 arbitrary units
same,UCP1 level at end of treatment in % of before treatment,"[2]; Patient 7, 8 weeks",110%
same,"UCP1 level increase, end of treatment vs. before","[2]; Patient 7, 8 weeks",10%
same,"UCP1 mRNA level after treatment (Rosi), normalized to cyclophilin A",[2]; Patient 7,142 arbitrary units
